Reference: ChEMBL document CHEMBL6103598, “One-Pot Synthesis of Novel Tetrasubstituted α-Aminophosphonates Derived from α-Methylphosphoserine and In Vivo Evaluation as Anti-Inflammatory Agents” (J Med Chem, 2025)
Active and inactive are the calls of the source. The calls are words filed in the database; no cut-off is given here.

Key:
[1] = test system: Mus musculus; experiment: Antiinflammatory activity against TPA-induced ear edema in female CD1 mouse model assessed as reduction in ear edema by measuring effective dose measured per ear incubated for 4 hrs administered topically; type: functional
[2] = test system: Mus musculus; experiment: Antiinflammatory activity against CFA-induced paw edema in female CD1 mouse model assessed as reduction in paw swelling by measuring AUC at 10 mg/kg, po preincubated with compound for 30 mins followed by CFA stimulation and measured after 2 to 6 hrs relative to control; type: functional; set-up: scale not given: the % may be the effect or the level left; settings: time 2.5-6.5 hrs
[3] = test system: Mus musculus; experiment: Antiinflammatory activity against CFA-induced paw edema in female CD1 mouse model assessed as reduction in paw swelling at 10 mg/kg, po preincubated with CFA followed by compound addition and measured after 25 to 28 hrs relative to control; type: functional; set-up: scale not given: the % may be the effect or the level left; settings: time 25-28 hrs
[4] = test system: Mus musculus; experiment: Antiinflammatory activity against CFA-induced paw edema in female CD1 mouse model assessed as reduction in paw swelling at 10 mg/kg, po preincubated with compound for 30 mins followed by CFA stimulation and measured after 2 to 6 hrs; type: functional, organism-based; settings: time 2.5-6.5 hrs
[5] = Octanol/water partition coefficient, logP of compound by shake flask method; type: physicochemical
[6] = test system: Mus musculus; experiment: Antiinflammatory activity against TPA-induced ear edema in female CD1 mouse model assessed as reduction in ear edema by measuring maximum efficacy at 0.25 to 1.25 mg measured per ear incubated for 4 hrs administered topically relative to control; type: functional; settings: CD1, topical, dose 0.25-1.25 mg
[7] = test system: Mus musculus; experiment: Antiinflammatory activity against TPA-induced ear edema in female CD1 mouse model assessed as decrease in NLR value at 1 mg measured per ear administered topically incubated for 4 hrs by microscopic analysis relative to control; type: functional; set-up: scale not given: the % may be the effect or the level left
[8] = test system: Mus musculus; experiment: Antiinflammatory activity against CFA-induced paw edema in female CD1 mouse model assessed as reduction in paw swelling at 10 mg/kg, po preincubated with compound for 30 mins followed by CFA stimulation and measured after 24 hrs; type: functional, organism-based; settings: time 24.5 hrs
[9] = test system: Mus musculus; experiment: Potency index, ratio of Indomethacin ED50 to test compound ED50 for antiinflammatory activity against TPA-induced ear edema in female CD1 mouse model assessed as reduction in ear edema by measuring effective dose measured per ear incubated for 4 hrs administered topically; type: functional
[10] = test system: Mus musculus; experiment: Antiinflammatory activity against TPA-induced ear edema in female CD1 mouse model assessed as reduction in ear edema administered topically incubated for 4 hrs measured per ear; type: functional, organism-based
[11] = test system: Mus musculus; experiment: Antiinflammatory activity against TPA-induced ear edema in female CD1 mouse model assessed as decrease in NLR value at 3 mg measured per ear administered topically incubated for 4 hrs by microscopic analysis relative to control; type: functional; set-up: scale not given: the % may be the effect or the level left
[12] = test system: Mus musculus; experiment: Antiinflammatory activity against TPA-induced ear edema in female CD1 mouse model assessed as decrease in NLR value at 5.7 mg measured per ear administered topically incubated for 4 hrs by microscopic analysis relative to control; type: functional; set-up: scale not given: the % may be the effect or the level left

| Compound | ED50 [1] | Activity [2] | Activity [3] | Activity [4] | logP [5] | Emax [6] | Activity [7] | Activity [8] | Ratio ED50 [9] | Activity [10] | Activity [11] | Activity [12] |
| --- | --- | --- | --- | --- | --- | --- | --- | --- | --- | --- | --- | --- |
| COc1ccc2c(c1)c(CC(=O)O)c(C)n2C(=O)c1ccc(Cl)cc1 [INDOMETHACIN] | 0.54 mg | 58.7% | 36.5% | Active | 3.99 | 89.3% | 59.3% | inactive | – | – | – | – |
| CCC(=O)OCC(C)(N[C@@H](C)c1ccccc1)P(=O)(OC)OC (stereo partly drawn) | 0.66 mg | 47.8% | 21.7% | Active | 3.5 | 85.9% | – | inactive | 0.8 | Dose-dependent-effect | – | – |
| COP(=O)(OC)C(C)(COC(=O)c1ccccc1)NCc1ccccc1 (stereo not drawn) | 0.49 mg | 47.8% | 21.7% | Active | 4.2 | 83.3% | – | inactive | 1.1 | Dose-dependent-effect | – | – |
| COP(=O)(OC)C(C)(COC(=O)c1ccccc1)N[C@@H](C)c1ccccc1 (stereo partly drawn) | 0.46 mg | 47.8% | 21.7% | Active | 4.4 | 91.8% | – | inactive | 1.2 | Dose-dependent-effect | 64.7% | – |
| COc1ccc2cc([C@H](C)C(=O)OCC(C)(N[C@@H](C)c3ccccc3)P(=O)(OC)OC)ccc2c1 (stereo partly drawn) | 0.26 mg | 47.8% | 21.7% | Active | 4.8 | 93.9% | – | inactive | 2.1 | Dose-dependent-effect | – | 46.7% |
| CCC(=O)OCC(C)(NCc1ccccc1)P(=O)(OC)OC (stereo not drawn) | 0.48 mg | 47.8% | 21.7% | Active | 3.3 | 90.1% | – | inactive | 1.1 | Dose-dependent-effect | – | 48% |
| COc1ccc2cc([C@H](C)C(=O)O)ccc2c1 [NAPROXEN] | 0.13 mg | 55.4% | 39.8% | Active | – | 90.6% | 57.1% | inactive | – | Dose-dependent-effect | – | – |
| COc1ccc2cc([C@H](C)C(=O)OCC(C)(NCc3ccccc3)P(=O)(OC)OC)ccc2c1 (stereo partly drawn) | 0.53 mg | 47.8% | 21.7% | Active | 4.5 | 84.8% | – | inactive | 1 | Dose-dependent-effect | – | – |
